pIC50: −log10 of the molar value.
Test: Inhibition of CSF1R in mouse MNFS-60 cells assessed as reduction in CSF-induced cell viability after 48 hrs by Ez-cytox reagent based assay

Row | SMILES | pIC50
1 | FC(F)(F)c1ccc(CNc2ccc(Cc3c[nH]c4ncc(Cl)cc34)cn2)cn1 | 7.85
2 | CCN1CCN(Cc2ccc(C(=O)Nc3ccc(C)c(NCc4cnc5cccnn45)c3)cc2C(F)(F)F)CC1 | 6.18
3 | CCN1CCN(Cc2ccc(C(=O)Nc3ccc(C)c(NCc4cnc5ccc(OC)nn45)c3)cc2C(F)(F)F)CC1 | 6.39
4 | CCN1CCN(Cc2ccc(NC(=O)c3ccc(C)c(NC(=O)c4cnc5cccnn45)c3)cc2C(F)(F)F)CC1 | 6.91
5 | CCN1CCN(Cc2ccc(C(=O)Nc3ccc(C)c(NC(=O)c4cnc5cccnn45)c3)cc2C(F)(F)F)CC1 | 6.75
6 | CCN1CCN(Cc2ccc(C(=O)Nc3ccc(C)c(NC(=O)c4cnnc5ccccc45)c3)cc2C(F)(F)F)CC1 | 5.80
7 | CCN1CCN(Cc2ccc(C(=O)Nc3ccc(C)c(NC(=O)c4cnc5ccccn45)c3)cc2C(F)(F)F)CC1 | 6.83
8 | CCN1CCN(Cc2ccc(C(=O)Nc3ccc(C)c(NC(=O)c4cnn5ccccc45)c3)cc2C(F)(F)F)CC1 | 7.04
9 | CCN1CCN(Cc2ccc(C(=O)Nc3ccc(C)c(NC(=O)c4cnc5ncccn45)c3)cc2C(F)(F)F)CC1 | 5.38
10 | CCN1CCN(Cc2ccc(C(=O)Nc3ccc(C)c(NC(=O)c4n[nH]c5ccccc45)c3)cc2C(F)(F)F)CC1 | 5.80
11 | CCN1CCN(Cc2ccc(C(=O)Nc3ccc(C)c(NC(=O)c4n[nH]c5ncccc45)c3)cc2C(F)(F)F)CC1 | 6.60
12 | CCN1CCN(Cc2ccc(C(=O)Nc3ccc(C)c(NC(=O)c4cc[nH]n4)c3)cc2C(F)(F)F)CC1 | 5.33
13 | CCN1CCN(Cc2ccc(C(=O)Nc3ccc(C)c(NC(=O)c4ccn(C)n4)c3)cc2C(F)(F)F)CC1 | 5.29
14 | CCN1CCN(Cc2ccc(C(=O)Nc3ccc(C)c(NC(=O)c4c[nH]cn4)c3)cc2C(F)(F)F)CC1 | 5.27
15 | CCN1CCN(Cc2ccc(C(=O)Nc3ccc(C)c(NC(=O)c4ncc[nH]4)c3)cc2C(F)(F)F)CC1 | 5.24
16 | Cc1ccc(NC(=O)c2ccc(C(F)(F)F)nc2)cc1NC(=O)c1cnc2cccnn12 | < 5.00
17 | Cc1ccc(NC(=O)c2ccc(C(F)(F)F)nc2)cc1NC(=O)c1cnc2ccccn12 | 7.60
18 | Cc1ccc(NC(=O)c2ccc(C(F)(F)F)nc2)cc1NC(=O)c1cnn2ccccc12 | 7.57
19 | Cc1ccc(NCc2ccc(C(F)(F)F)nc2)cc1NC(=O)c1cnc2cccnn12 | < 5.00
20 | Cc1ccc(NCc2ccc(C(F)(F)F)nc2)cc1NC(=O)c1cnc2ccccn12 | 5.50
21 | Cc1ccc(NCc2ccc(C(F)(F)F)nc2)cc1NC(=O)c1cnn2ccccc12 | 5.24
22 | Cc1cn(-c2cc(NC(=O)c3ccc(C)c(NC(=O)c4cnc5cccnn45)c3)cc(C(F)(F)F)c2)cn1 | 5.74
23 | Cc1cn(-c2cc(NC(=O)c3ccc(C)c(NC(=O)c4cnc5ccccn45)c3)cc(C(F)(F)F)c2)cn1 | 6.31
24 | CNC(=O)c1cc(Oc2ccc3nc(N[C@H]4CCCC[C@H]4O)sc3c2)ccn1 | 6.61
25 | Cc1cn(-c2cc(NC(=O)c3ccc(C)c(Nc4nccc(-c5cccnc5)n4)c3)cc(C(F)(F)F)c2)cn1 [AMN 107] | 6.27

From BindingDB's records for doi:10.1016/j.ejmech.2021.113298 (Chung-Ang University, 2021)
